# From patent US9789111B2, “Casein kinase 1δ (CK 1δ) inhibitors” (Electrophoretics Limited, priority 2010, dated 2017)
# Tests used:
# [1] = biological target: T1, CK1δ (Homo sapiens, UniProt P48730); test: CK1δ inhibition assay (33P-ATP, CK1tide substrate); assay type: biochemical; conditions: range of kinase inhibition assays
# T1 construct: Recombinant human full-length construct; GST; host or cells: insect cells
# T1 sequence (P48730 1-409 isoform P48730-2): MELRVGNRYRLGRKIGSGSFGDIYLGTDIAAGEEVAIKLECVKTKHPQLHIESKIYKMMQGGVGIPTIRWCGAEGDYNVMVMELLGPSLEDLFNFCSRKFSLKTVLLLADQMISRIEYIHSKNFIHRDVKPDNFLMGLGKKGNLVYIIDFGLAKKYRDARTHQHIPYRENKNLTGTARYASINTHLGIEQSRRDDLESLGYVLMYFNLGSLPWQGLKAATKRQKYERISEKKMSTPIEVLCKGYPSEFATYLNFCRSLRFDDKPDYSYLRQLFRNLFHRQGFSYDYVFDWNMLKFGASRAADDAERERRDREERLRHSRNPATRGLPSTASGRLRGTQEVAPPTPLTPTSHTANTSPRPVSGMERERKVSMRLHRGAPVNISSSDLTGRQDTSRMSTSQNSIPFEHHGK
# Protocol: The compounds of the invention may be tested for inhibition of casein kinase 1 delta (CK1δ) in accordance with the assay protocols described in US 2010/0152157, EP 1,636,375 or Hanger et al (2007) J. Biol. Chem. 282, 23645-23654. In particular, the assay was conducted in accordance with the following protocol:
# Base Reaction buffer; 20 mM Hepes (pH 7.5), 10 mM MgCl2, 1 mM EGTA, 0.02% Brij35, 0.02 mg/ml BSA, 0.1 mM Na3VO4, 2 mM DTT, 1% DMSO
# It should be noted that required cofactors are added individually to each kinase reaction.
# • 1. Prepare indicated substrate in freshly prepared Base Reaction Buffer as described above • 2. Deliver any required cofactors to the substrate solution • 3. Deliver indicated kinase into the substrate solution and gently mix • 4. Deliver compounds in DMSO into the kinase reaction mixture • 5. Deliver ^33P-ATP (specific activity 0.01 μCi/μl final) into the reaction mixture to initiate the reaction • 6. Incubate kinase reaction for 120 min. at room temperature • 7. Reactions are spotted onto P81 ion exchange paper (Whatman #3698-915) • 8. Wash filters extensively in 0.75% Phosphoric acid Kinase Information: • CK1δ—Genbank Accession # NP_620693 • Recombinant human full-length construct. GST-tagged, expressed in insect cells. • Final concentration in assay=4 nM • Substrate: CK1tide • Substrate sequence: [KRRRAL[pS]VASLPGL] • Final substrate concentration in assay=20 μM • It should be noted that no additional cofactors are added to the reaction mixture.
# [2] = biological target: CK1g1 (Homo sapiens, UniProt Q9HCP0); test: kinase inhibition assay panel; assay type: biochemical
# CK1g1, sequence (Q9HCP0 whole entry): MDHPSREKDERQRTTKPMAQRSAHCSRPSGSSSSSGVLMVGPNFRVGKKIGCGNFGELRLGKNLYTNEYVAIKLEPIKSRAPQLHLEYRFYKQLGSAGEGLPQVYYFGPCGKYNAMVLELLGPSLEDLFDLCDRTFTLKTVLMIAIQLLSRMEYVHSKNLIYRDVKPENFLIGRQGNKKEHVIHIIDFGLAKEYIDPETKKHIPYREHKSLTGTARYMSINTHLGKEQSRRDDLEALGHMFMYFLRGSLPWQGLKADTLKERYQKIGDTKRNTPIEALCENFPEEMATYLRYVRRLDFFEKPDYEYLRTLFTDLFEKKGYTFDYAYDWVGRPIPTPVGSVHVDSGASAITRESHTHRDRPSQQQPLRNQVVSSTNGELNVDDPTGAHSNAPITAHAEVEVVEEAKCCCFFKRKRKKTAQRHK
# [3] = biological target: CK1g3 (Homo sapiens, UniProt Q9Y6M4); test: kinase inhibition assay panel; assay type: biochemical
# CK1g3, sequence (Q9Y6M4 whole entry): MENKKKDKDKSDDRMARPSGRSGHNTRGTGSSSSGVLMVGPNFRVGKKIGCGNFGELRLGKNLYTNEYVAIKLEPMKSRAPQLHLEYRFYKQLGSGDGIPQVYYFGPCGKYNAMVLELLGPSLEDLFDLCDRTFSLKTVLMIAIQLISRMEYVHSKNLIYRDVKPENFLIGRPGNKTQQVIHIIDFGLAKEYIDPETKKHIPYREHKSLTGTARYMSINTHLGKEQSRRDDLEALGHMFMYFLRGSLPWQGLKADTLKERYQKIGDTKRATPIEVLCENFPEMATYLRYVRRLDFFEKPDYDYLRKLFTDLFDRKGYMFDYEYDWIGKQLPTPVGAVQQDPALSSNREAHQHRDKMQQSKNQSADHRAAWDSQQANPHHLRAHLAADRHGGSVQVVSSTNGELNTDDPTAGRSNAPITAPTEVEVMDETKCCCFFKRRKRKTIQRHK
# [4] = biological target: CLK2 (Homo sapiens, UniProt P49760); test: kinase inhibition assay panel; assay type: biochemical
# CLK2, sequence (P49760 whole entry, species assumed): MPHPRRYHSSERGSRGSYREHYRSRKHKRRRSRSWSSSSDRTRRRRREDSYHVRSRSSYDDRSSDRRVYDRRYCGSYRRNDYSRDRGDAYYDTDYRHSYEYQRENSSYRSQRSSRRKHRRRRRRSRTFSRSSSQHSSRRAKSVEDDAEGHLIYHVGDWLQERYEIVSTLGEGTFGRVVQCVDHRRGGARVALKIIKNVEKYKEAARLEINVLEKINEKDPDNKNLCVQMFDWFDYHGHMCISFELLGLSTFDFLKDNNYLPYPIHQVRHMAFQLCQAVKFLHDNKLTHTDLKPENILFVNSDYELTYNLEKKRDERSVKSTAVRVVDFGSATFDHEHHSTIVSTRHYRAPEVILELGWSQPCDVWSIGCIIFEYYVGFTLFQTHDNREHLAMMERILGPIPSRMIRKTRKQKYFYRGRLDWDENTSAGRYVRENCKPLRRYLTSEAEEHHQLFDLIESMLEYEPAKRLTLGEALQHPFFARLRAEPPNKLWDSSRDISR
# [5] = tested on: Tau phosphorylation in SH-SY5Y-TMHT cells; test: PhosphoTau SRM assay V2 and V3 (mass spectrometric); assay type: cell-based, human; conditions: for relative level of phosphorylation at each site (level of phosphopeptide) compared with vehicle treated controls / Tau phosphorylated at S396: 10 μM; for relative level of phosphorylation at each site (level of phosphopeptide) compared with vehicle treated controls: PhosphoTau SRM assay V2 and V3; for Tau phosphorylated at S396: vehicle control approximately 83%; for phosphorylation of Ser 396 within Tau proteins: FIG. 4
# Source text: The PhosphoTau SRM V2 assay measures total tau and relative phosphorylation levels at five of the most commonly studied sites on Tau and was obtained from Proteome Sciences plc (Cobham, England). None of the sites in the V2 assay is uniquely phosphorylated by CK1δ and there is a possibility that compound-induced inhibition of phosphorylation measured by this method may be achieved through promiscuous inhibition of other kinases such as GSK3b and/or CDK5. […] Table 1 lists the various sites covered and the candidate Tau kinases reported in Hanger et al. (2007).
# SH-SY5Y-TMHT cells are kept in culture medium (DMEM medium, 10% FCS, 1% NEAA, 1% L-Glutamine, 100 μg/ml Gentamycin, 300 μg/ml Geneticin G-418) for 2 days until 80-90% confluency. Cells are then differentiated in culture medium supplemented with 10 μM retinoic acid (RA) for 7 days changing medium every 2 to 3 days. […] On day 8 post-differentiation, the test compounds, reference compounds and vehicle control were added to the culture medium. After 6 h of compound exposure one plate of cells is subjected to a MTT assay to evaluate the effect of test and reference items on cell viability. Remaining wells are washed once with cold PBS and harvested in 300 μl RIPA-Buffer [50 mM Tris pH 7.4, 1% Nonident P40, 0.25% Na-deoxy-cholate, 150 mM NaCl, 1 mM EDTA, 1 μM NaF, 1 μM Na-ortho-vanadate, 80 mM Glycerophosphate, supplemented with freshly added protease (Calbiochem) and phosphatase (Sigma) inhibitor cocktail]. The cell suspension is transferred into a 1.5 ml tube and additionally lysed by sonication on ice. An aliquot of 20 μl is taken for the determination of the protein concentration (BCA assay). Subsequently, the lysates are snap frozen and stored at −80° C. until shipment.
# Stacking gels are loaded with approximately 100 μg total protein based on BCA assay results. Gels are run until the total protein content forms a single discrete band in the stacking gel. Each protein band is then cut from the gel and digested with either trypsin or Asp-N and analysed using the PhosphoTau SRM assay V2 or V3 respectively. Each assay method quantifies the phosphorylation in pre-clinical material using a triple quadrupole mass spectrometer (TSQ Vantage, Thermo Scientific, Hemel Hempstead, UK). Prior to SRM analysis phosphopeptides and pre-clinical samples were resolved by RP-chromatography (XBridge column, Waters, Manchester, UK) over a 9 minute gradient 0-30% ACN (buffer A; 0.1% FA, buffer B; ACN, 0.1% FA). Light and heavy versions for each peptide and phosphopeptide were monitored by several SRM transitions, using optimised S Lens values and collision energy settings. The area under the SRM LC peak was used to quantitate the amount of analyte present in each cell lysate as a single point reference to the signal of the heavy peptide spike.
# An 11 point calibration curve of light phosphopeptides with each point in the curve spiked with 100 fmol heavy phosphopeptides was also produced to determine assay characteristics (LOD, LOQ, precision and accuracy). For each specified tau population, the endogenous level of each tau phosphopeptide was quantified against its calibration curve (0.25-1000 fmol on column). Prior to LC-SRM analysis each tau population was spiked with 100 fmol of the heavy phosphopeptide standards.
inhibition of CK1g1 [2],inhibition of CK1g3 [3],inhibition of CLK2 [4],SMILES,selectivity for CK1δ when compared with other kinases [1],relative level of phosphorylation at each site (level of phosphopeptide) compared with vehicle treated controls [5],Tau phosphorylated at S396 [5],phosphorylation of Ser 396 within Tau proteins [5]
lower than 40%,lower than 40%,lower than 40%,"Nc1ncc(-c2nc3ccccc3o2)c(-c2ccncc2)n1 [Compound 324, 5-(1,3-benzoxazol-2-yl)-4-(pyridin-4-yl)pyrimidin-2-amine]",significant and selective inhibition for CK1δ,distinct reduction,38%,inhibit phosphorylation
lower than 40%,lower than 40%,lower than 40%,"NC(=O)c1c(N)c(C(=O)c2ccc(F)cc2)n2ccccc12 [Compound 987, 2-amino-3-[(4-fluorophenyl)carbonyl]indolizine-1-carboxamide]",significant and selective inhibition for CK1δ,distinct reduction,24%,inhibit phosphorylation
